# Reference: patent publication US9149039B2, “Anthranilic diamide/polymer propagule-coating compositions” (E I DU PONT DE NEMOURS AND COMPANY, priority 2011, dated 2015)
# Test system: Spodoptera frugiperda
# Test: Laboratory test of 2nd instar larva of Spodoptera frugiperda on maize leaves (mortality)
# Format: in vivo
structure (smiles),measurement,setting,value
"CNC(=O)c1cc(Cl)cc(C)c1NC(=O)c1cc(Br)nn1-c1ncccc1Cl [Compound 2, 3-bromo-N-[4-chloro-2-methyl-6-[(methylamino)carbonyl]phenyl]-1-(3-chloro-2-pyridinyl)-1H-pyrazole-5-carboxamide]",concentration per g of leaf tissue resulting in 50% mortality within 72 h,50% mortality within 72 h,0.033 micrograms per g of leaf tissu
same,concentration per g of tissue needed to achieve 100% mortality within 72 h,100% mortality within 72 h,0.037 micrograms per g of tissue
